The text below walks through data of patent publication US9695155B2, “Herbicidal substituted pyrimidinyloxy benzene compounds” (E. I. DU PONT DE NEMOURS AND COMPANY, priority 2013, dated 2017).

One test relates to smartweed. Kind of test: Test E preemergence. It is filed as in vivo, ladysthumb smartweed. Conditions: for Smartweed plant response rating: scale 0 to 100 (0 no effect, 100 complete control); for Plant response rating, Smartweed: scale 0 to 100, 0 no effect, 100 complete control. An excerpt:
Seeds of plant species selected from corn (Zea mays), soybean (Glycine max), velvetleaf (Abutilon theophrasti), lambsquarters (Chenopodium album), wild poinsettia (Euphorbia heterophylla), palmer pigweed (Amaranthus palmeri), waterhemp (common waterhemp, Amaranthus rudis), surinam grass (Brachiaria decumbens), large (Lg) crabgrass (Digitaria sanguinalis), Brazilian crabgrass (Digitaria horizontalis), fall panicum (Panicum dichotomiflorum), giant foxtail (Setaria faberii), green foxtail (Setaria viridis), goosegrass (Eleusine indica), johnsongrass (Sorghum halepense), ragweed (common ragweed, Ambrosia elatior), barnyardgrass (Echinochloa crus-galli), sandbur (southern sandbur, Cenchrus echinatus), arrowleaf sida (Sida rhombifolia), Italian ryegrass (Lolium multiflorum), dayflower (Virginia (VA) dayflower, Commelina virginica), field bindweed (Convolvulus arvensis), morningglory (Ipomoea coccinea), nightshade (eastern black nightshade, Solanum ptycanthum), kochia (Kochia scoparia), yellow nutsedge (Cyperus esculentus), cocklebur (common cocklebur, Xanthium strumarium), smartweed (ladysthumb smartweed, and hairy beggarticks (Bidens pilosa), were planted into a silt loam soil and treated preemergence with test chemicals formulated in a non-phytotoxic solvent mixture which included a surfactant.
At the same time, plants from these crop and weed species and also horseweed (Canada horseweed, Conyza canadensis), waterhemp_RES1, (ALS & Triazine resistant common waterhemp, Amaranthus rudis), and waterhemp_RES2, (ALS & HPPD resistant common waterhemp, Amaranthus rudis) were planted in pots containing Redi-Earth® planting medium (Scotts Company, 14111 Scottslawn Road, Marysville, Ohio 43041) comprising spaghnum peat moss, vermiculite, wetting agent and starter nutrients were treated with postemergence applications of test chemicals formulated in the same manner. Plants ranged in height from 2 to 18 cm for postemergence treatments (1- to 4-leaf stage). Treated plants and controls were maintained in a greenhouse for 14 to 21 days, after which time all species were compared to controls and visually evaluated. Plant response ratings, summarized in Table E, are based on a scale of 0 to 100 where 0 is no effect and 100 is complete control. A dash (-) response means no test result.

The test system of a further test is bermudagrass. Kind of test: Test C preemergence. It is filed as in vivo, Cynodon dactylon. The conditions noted are these: for Bermudagrass plant response rating: preemergence, scale 0 (no effect) to 100 (complete control); for Plant response rating, Bermudagrass: Preemergence, 31 g ai/ha, scale 0 to 100, 0 no effect, 100 complete control. An excerpt:
(§1) Seeds of plant species selected from blackgrass (Alopecurus myosuroides), Italian ryegrass (Lolium multiflorum), wheat, winter (winter wheat, Triticum aestivum), galium (catchweed bedstraw, Galium aparine), corn (Zea mays), large (Lg) crabgrass (Digitaria sanguinalis), giant foxtail (Setaria faberii), johnsongrass (Sorghum halepense), lambsquarters (Chenopodium album), morningglory (Ipomoea coccinea), yellow nutsedge (Cyperus esculentus), pigweed (Amaranthus retroflexus), ragweed (common ragweed, Ambrosia elatior), soybean (Glycine max), barnyardgrass (Echinochloa crus-galli), oilseed rape (Brassica napus), waterhemp (common waterhemp, Amaranthus rudis), kochia (Kochia scoparia), wild oat (Avena fatua), surinam grass (Brachiaria decumbens), foxtail, green (green foxtail, Setaria viridis), goosegrass (Eleusine indica), bromegrass, downy (downy bromegrass, Bromus tectorum), nightshade (eastern black nightshade, Solanum ptycanthum), cocklebur (common cocklebur, Xanthium strumarium), cupgrass, woolly (woolly cupgrass, Eriochloa villosa), bermudagrass (Cynodon dactylon), sunflower, (common oilseed sunflower, Helianthus annuus), Russian thistle (Salsola kali), and velvetleaf (Abutilon theophrasti) were planted into a blend of loam soil and sand and treated preemergence with test chemicals formulated in a non-phytotoxic solvent mixture which included a surfactant.
(§2) At the same time, plants selected from these crop and weed species and also barley, winter (winter barley, Hordeum vulgare), windgrass (Apera spica-venti), chickweed (common chickweed, Stellaria media), deadnettle (henbit deadnettle, Lamium amplexicaule), and canarygrass (littleseed canarygrass, Phalaris minor) were planted in pots containing Redi-Earth® planting medium (Scotts Company, 14111 Scottslawn Road, Marysville, Ohio 43041) comprising spaghnum peat moss, vermiculite, wetting agent and starter nutrients and treated with postemergence applications of test chemicals formulated in the same manner. Plants ranged in height from 2 to 18 cm (1- to 4-leaf stage) for postemergence treatments. Treated plants and controls were maintained in a greenhouse for 13 to 15 days, after which time all species were compared to controls and visually evaluated. Plant response ratings, summarized in Table C, are based on a scale of 0 to 100 where 0 is no effect and 100 is complete control. A dash (-) response means no test result.

Test [1] concerns water seeded rice seedlings. Kind of test: Test G flood (paddy water application). Type of test: in vivo, Oryza sativa cv. ‘Japonica—M202’. The conditions noted are these: after 21 days, scale 0 to 100, 0 no effect, 100 complete control. The text has this:
(§3) Three plastic pots (ca. 16-cm diameter) per rate were partially filled with sterilized Tama silt loam soil comprising a 35:50:15 ratio of sand, silt and clay and 2.6% organic matter. Separate plantings for each of the three pots were as follows. Seeds from the U.S. of monochoria (Monochoria vaginalis), sedge, umbrella (small-flower umbrella sedge, Cyperus difformis), hardstem bulrush (Scirpus juncoides), and redstem (purple redstem, Ammannia coccinea), were planted into one 16-cm pot for each rate. Seeds from the U.S. of rice flatsedge (Cyperus iria), bearded sprangletop (Leptochloa fascicularis), one stand of 9 or 10 water seeded rice seedlings (Oryza sativa cv. ‘Japonica—M202’), and two stands of 3 or 4 transplanted rice seedlings (Oryza sativa cv. ‘Japonica—M202’) were planted into one 16-cm pot for each rate. Seeds from the U.S. of barnyardgrass (Echinochloa crus-galli), and late watergrass (Echinochloa oryzicola) were planted into one 16-cm pot for each rate. Plantings were sequential so that crop and weed species were at the 2.0 to 2.5-leaf stage at time of treatment.
(§4) Potted plants were grown in a greenhouse with day/night temperature settings of 30/27° C., and supplemental balanced lighting was provided to maintain a 16-hour photoperiod. Test pots were maintained in the greenhouse until test completion.
(§5) At time of treatment, test pots were flooded to 3 cm above the soil surface, treated by application of test compounds directly to the paddy water, and then maintained at that water depth for the duration of the test. Effects of treatments on rice and weeds were visually evaluated by comparison to untreated controls after 21 days. Plant response ratings, summarized in Table G, are based on a scale of 0 to 100 where 0 is no effect and 100 is complete control. A dash (-) response means no test result.

The subject of test [2] is transplanted rice seedlings. The test is described as follows: Test G flood (paddy water application). Type of test: in vivo, Oryza sativa cv. ‘Japonica—M202’. Conditions: after 21 days, scale 0 to 100, 0 no effect, 100 complete control.
Source text: as §3, §4, §5

A further test concerns Russian thistle. The test is described as follows: Test C preemergence. Type of test: in vivo, Salsola kali. The conditions noted are these: for Russian Thistle plant response rating: preemergence, scale 0 (no effect) to 100 (complete control); for Plant response rating, Russian Thistle: Preemergence, 31 g ai/ha, scale 0 to 100, 0 no effect, 100 complete control.
Source text: as §1, §2

The test system of a further test is redstem. The test is described as follows: Test G flood (paddy water application). Type of test: in vivo, Ammannia coccinea. Conditions: after 21 days, scale 0 to 100, 0 no effect, 100 complete control.
Source text: as §3, §4, §5

The test system of a further test is deadnettle. The test is described as follows: Test C postemergence. The conditions noted are these: for Plant response rating (0 to 100), Deadnettle: postemergence; for Plant response rating, Deadnettle: Postemergence, scale 0 to 100 (0 no effect, 100 complete control). It is filed as in vivo, Lamium amplexicaule.
Source text: as §1, §2

As for `FC(F)c1cccc(Oc2ncc(Cl)cn2)c1-n1cc(Br)cn1` [Compound 194, 2-[2-(4-bromo-1H-pyrazol-1-yl)-3-(difluoromethyl)phenoxy]-5-chloropyrimidine], the “Smartweed plant response rating” value was determined as 0 with smartweed (31 g ai/ha) and 90 in the test on smartweed (62 g ai/ha).
As to `FC(F)(F)c1cnn(-c2ccccc2Oc2ncc(Cl)cn2)c1` [Compound 16], the “Bermudagrass plant response rating” value in the test on bermudagrass (62 g ai/ha), in the test on bermudagrass (125 g ai/ha) and with bermudagrass (250 g ai/ha) was 98 each time. In the test on bermudagrass, the “Plant response rating, Bermudagrass” value is given as 95. Further, the “Plant response rating, Rice, Water Seeded” value is given as 50 in test [1] (32 g ai/ha), 90 in test [1] (64 g ai/ha), 100 in test [1] (125 g ai/ha) and 100 in test [1] (250 g ai/ha). In addition, the “Plant response rating, Rice, Transplanted” value in test [2] (32 g ai/ha) amounted to 0. Moreover, the entries for the “Russian Thistle plant response rating” value with Russian thistle (62 g ai/ha), in the test with Russian thistle (125 g ai/ha) and with Russian thistle (250 g ai/ha) were 80, 90 and 90, respectively. For the same molecule, in the test on Russian thistle, the “Plant response rating, Russian Thistle” value is on record as 0. Besides, the “Plant response rating, Redstem” value in the test on redstem (32 g ai/ha) amounted to 0; with redstem (64 g ai/ha), 60; with redstem (125 g ai/ha), 85; in the test with redstem (250 g ai/ha) it was 95.
With `N#Cc1cccc(Oc2ncc(F)cn2)c1-n1cc(Cl)cn1` [Compound 73], the “Smartweed plant response rating” value in the test on smartweed (16 g ai/ha) was found to be 0; in the test on smartweed (31 g ai/ha), 0; in the test on smartweed (62 g ai/ha) it was 20. Moreover, the “Plant response rating, Smartweed” value in the test on smartweed (125 g ai/ha) and in the test with smartweed (250 g ai/ha) was 98 in each case.
With `Clc1cnc(Oc2ccccc2-n2cc(Br)cn2)nc1` [Compound 7, 2-[2-(4-bromo-1H-pyrazol-1-yl)phenoxy]-5-chloropyrimidine], the “Plant response rating (0 to 100), Deadnettle” value in the test with deadnettle (125 g ai/ha) is 98; in the test on deadnettle (250 g ai/ha), 100. The “Plant response rating, Deadnettle” value with deadnettle (31 g ai/ha, 13 to 15 days) is on record as 85; in the test with deadnettle (62 g ai/ha), 98. Also, the “Bermudagrass plant response rating” value with bermudagrass (62 g ai/ha), in the test with bermudagrass (125 g ai/ha) and with bermudagrass (250 g ai/ha) was 100 each time. For the same molecule, the “Plant response rating, Bermudagrass” value in the test on bermudagrass is reported as 85.
As to `Fc1cnc(Oc2ccccc2-n2cc(Br)cn2)nc1` [Compound 10, 2-[2-(4-bromo-1H-pyrazol-1-yl)phenoxy]-5-fluoropyrimidine], the “Plant response rating (0 to 100), Deadnettle” value with deadnettle (125 g ai/ha) is listed as 80; in the test with deadnettle (250 g ai/ha), 95. The “Plant response rating, Deadnettle” value worked out at 50 in the test with deadnettle (31 g ai/ha, 13 to 15 days) and 60 in the test with deadnettle (62 g ai/ha).
Regarding `FC(F)(F)c1cnn(-c2ccccc2Oc2ncc(Br)cn2)c1` [Compound 18, 5-bromo-2-[2-[4-(trifluoromethyl)-1H-pyrazol-1-yl]phenoxy]pyrimidine], the “Bermudagrass plant response rating” value in the test on bermudagrass (62 g ai/ha) came to 98; with bermudagrass (125 g ai/ha), 98; in the test with bermudagrass (250 g ai/ha), 100. For the same molecule, the “Plant response rating, Bermudagrass” value in the test with bermudagrass was found to be 95. The results for the “Plant response rating, Rice, Water Seeded” value in test [1] (64 g ai/ha), in test [1] (125 g ai/ha) and in test [1] (250 g ai/ha) were 60, 90 and 100, respectively. Moreover, the “Plant response rating, Rice, Transplanted” value in test [2] (125 g ai/ha) stood at 15; in test [2] (250 g ai/ha), 20. Besides, the “Russian Thistle plant response rating” value is recorded as 0 in the test with Russian thistle (62 g ai/ha), 95 in the test on Russian thistle (125 g ai/ha) and 95 in the test on Russian thistle (250 g ai/ha). The “Plant response rating, Russian Thistle” value with Russian thistle turned out to be 0. Moreover, the “Plant response rating, Redstem” value is 0 in the test on redstem (32 g ai/ha), 0 with redstem (64 g ai/ha), 75 in the test on redstem (125 g ai/ha) and 90 with redstem (250 g ai/ha).
